Assay results as given in US8426420B2, “Heterocyclic pyrazole-carboxamidesas P2Y12 antagonists” (Sanofi, priority 2007, dated 2013).

Columns and labels:
[1] = test system: human platelet rich plasma; assay: Inhibition of human platelet aggregation, 96-well assay; type: cell-based; conditions: Homo sapiens, Platelet, 20 min
Outline: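 ADP-induced aggregation read as 650 nm absorbance every minute for 20 min at 37 °C, with shaking between reads. PRP (~3×E8 platelets/ml, diluted with PPP, ACD-A blood from healthy volunteers) was exposed to compound for 5 min before adding a 40 μM ADP stock (15 μl into 150 μl).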

human P2Y12 receptor = human P2Y12 receptor (Homo sapiens, UniProt Q9H244); assay: Human P2Y12 recombinant cell membrane binding assay with 33P 2MeS-ADP; conditions: competition against 33P 2MeS-ADP, membranes of CHO cells with recombinant human P2Y12 receptor
Outline: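 Competition binding against radiolabeled 2MeS-ADP (1.61 nM as added) on membranes from recombinant human P2Y12 CHO cells, 20 min RT after 15 min compound preincubation, pH 7.4. Filtration then scintillation counting; compounds tested in triplicate from 10 μM final, five-fold dilutions, curve fit with plate-defined min/max.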

Chain of human P2Y12 receptor (Q9H244 whole entry): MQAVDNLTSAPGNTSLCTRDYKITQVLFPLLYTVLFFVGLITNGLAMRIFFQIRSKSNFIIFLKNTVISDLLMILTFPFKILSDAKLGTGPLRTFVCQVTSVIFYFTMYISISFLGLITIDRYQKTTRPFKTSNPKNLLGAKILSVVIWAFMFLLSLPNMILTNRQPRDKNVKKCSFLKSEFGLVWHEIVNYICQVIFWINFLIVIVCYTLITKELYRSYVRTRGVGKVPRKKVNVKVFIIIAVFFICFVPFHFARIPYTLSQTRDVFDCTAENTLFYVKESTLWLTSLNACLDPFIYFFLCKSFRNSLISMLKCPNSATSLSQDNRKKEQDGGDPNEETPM

With CCCCOC(=O)N1CCN(C(=O)[C@H](COC)NC(=O)c2cc(OCC(=O)N3CCC[C@H]3C(=O)NC3CCC3)n(-c3ccccc3)n2)CC1 [Example 232, 4-[(S)-2-({5-[2-((S)-2-Cyclobutylcarbamoyl-pyrrolidin-1-yl)-2-oxo-ethoxy]-1-phenyl-1H-pyrazole-3-carbonyl}-amino)-3-methoxy-propionyl]-piperazine-1-carboxylic acid butyl ester] the IC50 [1] was 410 nM and the IC50 (human P2Y12 receptor) was 16 nM.

Work on CCOC(=O)N1CCN(C(=O)[C@H](CCC(=O)OC2CCC2)NC(=O)c2cc(OCC(=O)N3CCC[C@H]3C(=O)NC3CCC3)n(-c3ccccc3)n2)CC1 [Example 131, 4-[(S)-2-({5-[2-((S)-2-Cyclobutylcarbamoyl-pyrrolidin-1-yl)-2-oxo-ethoxy]-1-phenyl-1H-pyrazole-3-carbonyl}-amino)-4-cyclobutoxycarbonyl-butyryl]-piperazine-1-carboxylic acid ethyl ester] yielded an IC50 [1] of 740 nM and an IC50 (human P2Y12 receptor) of 54 nM.

For CCOC(=O)N1CCN(C(=O)[C@H](CCC(=O)OCC(C)C)NC(=O)c2cc(OCC(=O)N3CCC[C@H]3C(=O)NC3CCC3)n(-c3ccccc3)n2)CC1 [Example 135, 4-[(S)-2-({5-[2-((S)-2-Cyclobutylcarbamoyl-pyrrolidin-1-yl)-2-oxo-ethoxy]-1-phenyl-1H-pyrazole-3-carbonyl}-amino)-4-isobutoxycarbonyl-butyryl]-piperazine-1-carboxylic acid ethyl ester], the IC50 [1] was 660 nM and the IC50 (human P2Y12 receptor) was 60 nM.

CCOC(=O)N1CCN(C(=O)[C@H](CCNC(=O)C2CC2)NC(=O)c2cc(OCC(=O)N3CCC[C@H]3C(=O)NC3CCC3)n(-c3ccccc3)n2)CC1 [Example 95, 4-[(S)-2-({5-[2-((S)-2-Cyclobutylcarbamoyl-pyrrolidin-1-yl)-2-oxo-ethoxy]-1-phenyl-1H-pyrazole-3-carbonyl}-amino)-4-(cyclopropanecarbonyl-amino)-butyryl]-piperazine-1-carboxylic acid ethyl ester] was tested, and the IC50 [1] was 260 nM and the IC50 (human P2Y12 receptor) was 76 nM.

CCCOC(=O)N1CCN(C(=O)[C@H](CC(F)(F)F)NC(=O)c2cc(OCC(=O)N3CCC[C@H]3C(=O)NC3CCC3)n(-c3ccccc3)n2)CC1 [Example 273, 4-[(S)-2-({5-[2-((S)-2-Cyclobutylcarbamoyl-pyrrolidin-1-yl)-2-oxo-ethoxy]-1-phenyl-1H-pyrazole-3-carbonyl}-amino)-4,4,4-trifluoro-butyryl]-piperazine-1-carboxylic acid propyl ester] gave an IC50 [1] of 380 nM and an IC50 (human P2Y12 receptor) of 160 nM.

CCOC(=O)N1CCN(C(=O)[C@H](CCNS(=O)(=O)C(F)(F)F)NC(=O)c2cc(OCC(=O)N3CCC[C@H]3C(=O)NC3CCC3)n(-c3ccccc3)n2)CC1 [Example 188, 4-[(S)-2-({5-[2-((S)-2-Cyclobutylcarbamoyl-pyrrolidin-1-yl)-2-oxo-ethoxy]-1-phenyl-1H-pyrazole-3-carbonyl}-amino)-4-trifluoromethanesulfonylamino-butyryl]-piperazine-1-carboxylic acid ethyl ester] gave an IC50 [1] of 490 nM and an IC50 (human P2Y12 receptor) of 10 nM.

For CCOC(=O)N1CCN(C(=O)[C@H](CCC(=O)O)NC(=O)c2cc(OCC(=O)N3CCC[C@H]3C(=O)NC3CCC3)n(-c3ccc(F)c(F)c3)n2)CC1 [Example 83, 4-((S)-4-Carboxy-2-{[5-[2-((S)-2-cyclobutylcarbamoyl-pyrrolidin-1-yl)-2-oxo-ethoxy]-1-(3,4-difluoro-phenyl)-1H-pyrazole-3-carbonyl]-amino}-butyryl)-piperazine-1-carboxylic acid ethyl ester], the IC50 [1] was 120 nM and the IC50 (human P2Y12 receptor) was 31 nM.

CCOC(=O)N1CCN(C(=O)[C@H](CCNC(C)=O)NC(=O)c2cc(OCC(=O)N3CCC[C@H]3C(=O)NC3CCC3)n(-c3ccccc3)n2)CC1 [Example 92, 4-[(S)-4-Acetylamino-2-({5-[2-((S)-2-cyclobutylcarbamoyl-pyrrolidin-1-yl)-2-oxo-ethoxy]-1-phenyl-1H-pyrazole-3-carbonyl}-amino)-butyryl]-piperazine-1-carboxylic acid ethyl ester] showed an IC50 [1] of 1130 nM and an IC50 (human P2Y12 receptor) of 109 nM.

CCOC(=O)N1CCN(C(=O)[C@H](CCNC(=O)C2CC2(F)F)NC(=O)c2cc(OCC(=O)N3CCC[C@H]3C(=O)NC3CCC3)n(-c3ccccc3)n2)CC1 (stereo partly drawn) [Example 187, 4-{(S)-2-({5-[2-((S)-2-Cyclobutylcarbamoyl-pyrrolidin-1-yl)-2-oxo-ethoxy]-1-phenyl-1H-pyrazole-3-carbonyl}-amino)-4-[(2,2-difluoro-cyclopropanecarbonyl)-amino]-butyryl}-piperazine-1-carboxylic acid ethyl ester] gave an IC50 [1] of 440 nM and an IC50 (human P2Y12 receptor) of 98 nM.

For CCCCOC(=O)N1CCN(C(=O)[C@H](CCC)NC(=O)c2cc(OCC(=O)N3CCC[C@H]3C(=O)NC3CCC3)n(-c3ccccc3)n2)CC1 [Example 221, 4-[(S)-2-({5-[2-((S)-2-Cyclobutylcarbamoyl-pyrrolidin-1-yl)-2-oxo-ethoxy]-1-phenyl-1H-pyrazole-3-carbonyl}-amino)-pentanoyl]-piperazine-1-carboxylic acid butyl ester], the IC50 [1] was 260 nM and the IC50 (human P2Y12 receptor) was 34 nM.

Work on CCOC(=O)N1CCN(C(=O)[C@H](CCC(=O)O)NC(=O)c2cc(OCC(=O)N3CCC[C@H]3C(=O)NC3CC3(F)F)n(-c3ccccc3)n2)CC1 (stereo partly drawn) [Example 21, 4-{(S)-4-Carboxy-2-[(5-{2-[(S)-2-(2,2-difluoro-cyclopropylcarbamoyl)-pyrrolidin-1-yl]-2-oxo-ethoxy}-1-phenyl-1H-pyrazole-3-carbonyl)-amino]-butyryl}-piperazine-1-carboxylic acid ethyl ester] yielded an IC50 [1] of 62 nM and an IC50 (human P2Y12 receptor) of 32 nM.

In the case of CCOC(=O)N1CCN(C(=O)[C@H](CCC(=O)O)NC(=O)c2cc(OCC(=O)N3CCC[C@H]3C(=O)NC3CCC3)n(-c3ccccc3)n2)CC1 [Example 5], the IC50 [1] is reported as 30 nM and the IC50 (human P2Y12 receptor) is reported as 19 nM.

In the case of CCCOC(=O)N1CCN(C(=O)[C@H](C)NC(=O)c2cc(OCC(=O)N3CCC[C@H]3C(=O)NC3CCC3)n(-c3ccccc3)n2)CC1 [Example 208, 4-[(S)-2-({5-[2-((S)-2-Cyclobutylcarbamoyl-pyrrolidin-1-yl)-2-oxo-ethoxy]-1-phenyl-1H-pyrazole-3-carbonyl}-amino)-propionyl]-piperazine-1-carboxylic acid propyl ester], the IC50 [1] is reported as 390 nM and the IC50 (human P2Y12 receptor) is reported as 126 nM.

CCOC(=O)CC[C@H](NC(=O)c1cc(OCC(=O)N2CCC[C@H]2C(=O)NC2CCC2)n(-c2ccccc2)n1)C(=O)N1CCN(C(=O)OCC)CC1 [Example 127, 4-[(S)-2-({5-[2-((S)-2-Cyclobutylcarbamoyl-pyrrolidin-1-yl)-2-oxo-ethoxy]-1-phenyl-1H-pyrazole-3-carbonyl}-amino)-4-ethoxycarbonyl-butyryl]-piperazine-1-carboxylic acid ethyl ester] showed an IC50 [1] of 440 nM and an IC50 (human P2Y12 receptor) of 37 nM.

With O=C(O)CC[C@H](NC(=O)c1cc(OCC(=O)N2CCC[C@H]2C(=O)NC2CCC2)n(-c2ccccc2)n1)C(=O)N1CCC(C(=O)c2ccccc2)CC1 [Example 106, (S)-5-(4-Benzoyl-piperidin-1-yl)-4-({5-[2-((S)-2-cyclobutylcarbamoyl-pyrrolidin-1-yl)-2-oxo-ethoxy]-1-phenyl-1H-pyrazole-3-carbonyl}-amino)-5-oxo-pentanoic acid] the IC50 [1] was 1330 nM and the IC50 (human P2Y12 receptor) was 104 nM.
